From patent US11970494B2, “6-heteroaryloxy benzimidazoles and azabenzimidazoles as JAK2 inhibitors” (Ajax Therapeutics, Inc., priority 2021, dated 2024) come the findings set out here.

Data set [1] relates to JAK2-mediated pSTAT5 signaling in constitutively active essential thrombocytopenia cells carrying the V617F mutation. Nature of the data set: SET2-pSTAT5 Cellular Assay. It is filed as cell-based. Conditions: Homo sapiens, SET-2; SET2 cells, pSTAT5, 4 hours, MSD; read-out: IC50. On the procedure: This assay measures inhibition of JAK2-mediated pSTAT5 signaling in constitutively active essential thrombocytopenia cells carrying the V617F mutation. Cells are harvested from a flask into cell culture medium, and the number of cells is counted. The cells are diluted with culture medium and 100 μL of cell suspension (50000/well) is added into each well of a 96-well cell culture plate. A solution of test compound is added to the assay plate. The plates are covered with a lid and placed in a 37° C. 5% CO2 incubator for 4 hours. After 4 hours, the cells are spun, and the cell pellets are re-suspended with 100 μL cold PBS. Then, the cells are spun again at 4° C. and 4000 rpm for 5 min. PBS is aspirated, and 25 μL lysis buffer (with protease and phosphatase inhibitor cocktail) is added to each cell pellet. The cell lysate is shaken at 4° C. for 20 min to fully lyse the cells. The cell lysate is spun at 4° C. and 4000 rpm for 15 min, and then the supernatant is transferred into a new plate and stored at −80° C. Meso-scale discovery (MSD) is used to analyze plates as follows: a standard MSD plate is coated with capture antibody in PBS (40 μL/well) and is incubated at 4° C. overnight with shaking. The MSD plate is washed three times with 150 μL/well of 1×MSD Wash Buffer (Tris-buffered saline with 0.1% Tween® 20 detergent, TBST). The MSD plates are then blocked with 150 μL of blocking buffer (5% BSA in TBST) and shaken for 1 h at room temperature and 600 rpm. The MSD plate is washed three times with 150 μL/well of 1×MSD Wash Buffer (TBST). Sample lysates are then added to MSD plates (25 μL/well) and shaken for 1 h at room temperature and 600 rpm. The MSD plate is washed three times with 150 μL/well of 1×MSD Wash Buffer (TBST). Detection antibody (prepared in Antibody Detection buffer, 1% BSA in 1×TBST) is then added to the MSD plates, and they are shaken for 1 h at room temperature and 600 rpm. The MSD plate is washed three times with 150 μL/well of 1×MSD Wash Buffer (TBST). A secondary detection antibody (prepared in Antibody Detection buffer, 1% BSA in 1×TBST) is then added to the MSD plates, and they are shaken for 1 h at room temperature and 600 rpm. The MSD plate is washed three times with 150 μL/well of 1×MSD Wash Buffer (TBST). MSD reading buffer (1×) is added to the plates (150 μL/well), and they are diluted from 4× with water. The plates are imaged using an MSD imaging instrument according to the manufacturer's instructions.

A further data set in a line: Caco2 Permeability Assay. The data set is classed as in vitro ADME. Conditions: human; for efflux ratio at 2 h, 5 μM: pH 7.4, Caco-2, 5 μM, read-out: Efflux Ratio (ER); for Papp A→B at 2 h, 5 μM: pH 7.4, Caco-2, apical to basolateral. On the procedure: Preparation of Caco-2 Cells: 50 μL and 25 mL of cell culture medium are added to each well of a Transwell® insert and reservoir, respectively. Then, the HTS Transwell® plates are incubated at 37° C., 5% CO2 for 1 hour before cell seeding. Caco-2 cell cells are diluted to 6.86×10^5 cells/mL with culture medium, and 50 μL of cell suspension are dispensed into the filter well of the 96-well HTS Transwell® plate. Cells are cultivated for 14-18 days in a cell culture incubator at 37° C., 5% CO2, 95% relative humidity. Cell culture medium is replaced every other day, beginning no later than 24 hours after initial plating.
Preparation of Stock Solutions: 10 mM stock solutions of test compounds are prepared in DMSO. The stock solutions of positive controls are prepared in DMSO at the concentration of 10 mM. Digoxin and propranolol are used as control compounds in this assay.
Assessment of Cell Monolayer Integrity: Medium is removed from the reservoir and each Transwell® insert and is replaced with prewarmed fresh culture medium. Transepithelial electrical resistance (TEER) across the monolayer is measured using Millicell Epithelial Volt-Ohm measuring system (Millipore, USA). The Plate is returned to the incubator once the measurement is done. The TEER value is calculated according to the following equation: TEER measurement (ohms)×Area of membrane (cm^2)=TEER value (ohm⋅cm^2). A TEER value greater than 230 ohm⋅cm^2 indicates a well-qualified Caco-2 monolayer.
Assay Procedure: The Caco-2 plate is removed from the incubator and washed twice with pre-warmed HBSS (10 mM HEPES, pH 7.4), and then incubated at 37° C. for 30 minutes. The stock solutions of control compounds are diluted in DMSO to get 1 mM solutions and then diluted with HBSS (10 mM HEPES, pH 7.4) to get 5 μM working solutions. The stock solutions of the test compounds are diluted in DMSO to get 1 mM solutions and then diluted with HBSS (10 mM HEPES and 4% BSA, pH 7.4) to get 5 μM working solutions. The final concentration of DMSO in the incubation system is 0.5%. To determine the rate of drug transport in the apical to basolateral direction. 75 μL of 5 μM working solutions of test compounds are added to the Transwell® insert (apical compartment) and the wells in the receiver plate (basolateral compartment) are filled with 235 μL of HBSS (10 mM HEPES and 4% BSA, pH 7.4). To determine the rate of drug transport in the basolateral to apical direction, 235 μL of 5 μM working solutions of test compounds are added to the receiver plate wells (basolateral compartment) and then the Transwell® inserts (apical compartment) are filled with 75 μL of HBSS (10 mM HEPES and 4% BSA, pH 7.4). Time 0 samples are prepared by transferring 50 μL of 5 μM working solution to wells of the 96-deepwell plate, followed by the addition of 200 μL cold methanol containing appropriate internal standards (IS). The plates are incubated at 37° C. for 2 hours. At the end of the incubation, 50 μL samples from donor sides (apical compartment for Ap→*Bl flux, and basolateral compartment for Bl→Ap) and receiver sides (basolateral compartment for Ap→Bl flux, and apical compartment for Bl→Ap) are transferred to wells of a new 96-well plate, followed by the addition of 4 volume of cold acetonitrile or methanol containing appropriate internal standards (IS). Samples are vortexed for 5 minutes and then centrifuged at 3,220 g for 40 minutes. An aliquot of 100 μL of the supernatant is mixed with an appropriate volume of ultra-pure water before LC-MS/MS analysis. To determine the Lucifer Yellow leakage after 2 hour transport period, stock solution of Lucifer yellow is prepared in ultra-pure water and diluted with HBSS (10 mM HEPES, pH 7.4) to reach the final concentration of 100 μM. 100 μL of the Lucifer yellow solution is added to each Transwell® insert (apical compartment), followed by filling the wells in the receiver plate (basolateral compartment) with 300 μL of HBSS (10 mM HEPES, pH 7.4). […]
For orientation: Caco-2 cells form a polarised layer with tight junctions and transporters.

A word on the IC50: it is the concentration at which inhibition is half-maximal. By Papp A→B is commonly meant how fast a substance crosses the layer from the apical side. A lower Papp A→B goes with slow passage. On to `CO[C@@H]1CCN(C(=O)Nc2cc(Oc3cnc4nc(Nc5cc6n(n5)CCC65CCC5)n(C)c4c3C#N)ccn2)C1` [Example I-60, (R)-N-(4-((7-cyano-2-((5′,6′-dihydrospiro[cyclobutane-1,4′-pyrrolo[1,2-b]pyrazol]-2′-yl)amino)-1-methyl-1H-imidazo[4,5-b]pyridin-6-yl)oxy)pyridin-2-yl)-3-methoxypyrrolidine-1-carboxamide], for which the IC50 in data set [1] is less than 125 nM. For the same compound, in the data set “Caco2 Permeability Assay”, the efflux ratio at 2 h, 5 μM was not above 2 and the Papp A→B at 2 h, 5 μM was determined as 6 ×10⁻⁶ cm/s.
In the same order, the values of `COC1CN(C(=O)Nc2cc(Oc3cnc4nc(Nc5cc6n(n5)CCC65CCC5)n(C)c4c3C#N)ccn2)C1` [Example I-61, N-(4-((7-cyano-2-((5′,6′-dihydrospiro[cyclobutane-1,4′-pyrrolo[1,2-b]pyrazol]-2′-yl)amino)-1-methyl-1H-imidazo[4,5-b]pyridin-6-yl)oxy)pyridin-2-yl)-3-methoxyazetidine carboxamide] are less than 125 nM, 2 to 5 and 3 ×10⁻⁶ cm/s.
As to `COCCOC(=O)Nc1cc(Oc2cnc3nc(Nc4cc5n(n4)CCC54CCC4)n(C)c3c2C#N)ccn1` [Example I-62, 2-methoxyethyl(4-((7-cyano-2-((5′,6′-dihydrospiro[cyclobutane-1,4′-pyrrolo[1,2-b]pyrazol]-2′-yl)amino)-1-methyl-1H-imidazo[4,5-b]pyridin-6-yl)oxy)pyridin-2-yl)carbamate], the IC50 in data set [1] was less than 125 nM. In the data set “Caco2 Permeability Assay”, the efflux ratio at 2 h, 5 μM was not above 2 and the apparent permeability from apical to basolateral (Papp A→B) at 2 h, 5 μM came to 5 ×10⁻⁶ cm/s.
In the same order, the values of `COCC(=O)Nc1cc(Oc2cnc3nc(Nc4cc(C(F)(F)F)cn(C)c4=O)n(C)c3c2Cl)ccn1` [Example I-75, N-(4-((7-chloro-1-methyl-2-((1-methyl-2-oxo-5-(trifluoromethyl)-1,2-dihydropyridin-3-yl)amino)-1H-imidazo[4,5-b]pyridin-6-yl)oxy)pyridin-2-yl)-2-methoxyacetamide] are less than 125 nM, not above 2 and 12 ×10⁻⁶ cm/s.
`COCC(=O)Nc1cc(Oc2cnc3nc(Nc4cc(C(F)(F)F)cn(C)c4=O)n(C)c3c2C#N)ccn1` [Example I-79, N-(4-((7-cyano-1-methyl-2-((1-methyl-2-oxo-5-(trifluoromethyl)-1,2-dihydropyridin-3-yl)amino)-1H-imidazo[4,5-b]pyridin-6-yl)oxy)pyridin-2-yl)-2-methoxyacetamide]: the IC50 in data set [1] was less than 125 nM. In addition, in the data set “Caco2 Permeability Assay”, the efflux ratio at 2 h, 5 μM is not above 2 and the Papp A→B at 2 h, 5 μM was determined as 15 ×10⁻⁶ cm/s.
As to `CC(=O)Nc1cc(Oc2cnc3nc(Nc4cc(C(F)(F)F)cn(C)c4=O)n(C)c3c2Cl)c(F)cn1` [Example I-88, N-(4-((7-chloro-1-methyl-2-((1-methyl-2-oxo-5-(trifluoromethyl)-1,2-dihydropyridin-3-yl)amino)-1H-imidazo[4,5-b]pyridin-6-yl)oxy)-5-fluoropyridin-2-yl)acetamide], in data set [1], the IC50 was less than 125 nM. Also, in “Caco2 Permeability Assay”, the efflux ratio at 2 h, 5 μM is not above 2 and the Papp A→B at 2 h, 5 μM was determined as 5 ×10⁻⁶ cm/s.
For the compound `CC(=O)Nc1cc(Oc2cnc3nc(Nc4cc5n(n4)CCCC54CC4)n(C)c3c2C#N)ccn1` [Example I-114, N-(4-((7-cyano-2-((6′,7′-dihydro-5′H-spiro[cyclopropane-1,4′-pyrazolo[1,5-a]pyridin]-2′-yl)amino)-1-methyl-1H-imidazo[4,5-b]pyridin-6-yl)oxy)pyridin-2-yl)acetamide], the IC50 in data set [1] lay in the range of 200 to 1000 nM. Also, in “Caco2 Permeability Assay”, the efflux ratio at 2 h, 5 μM is not above 2 and the Papp A→B at 2 h, 5 μM is 4 ×10⁻⁶ cm/s.
For `CC(=O)Nc1cc(Oc2cnc3nc(Nc4cc5n(n4)CCOCC5(C)C)n(C)c3c2C#N)ccn1` [Example I-118, N-(4-((7-cyano-2-((4,4-dimethyl-4,5,7,8-tetrahydropyrazolo[1,5-d][1,4]oxazepin-2-yl)amino)-1-methyl-1H-imidazo[4,5-b]pyridin-6-yl)oxy)pyridin-2-yl)acetamide], in data set [1], the IC50 was in the range of 200 to 1000 nM. Moreover, in the data set “Caco2 Permeability Assay”, the efflux ratio at 2 h, 5 μM fell in the range of 2 to 5 and the Papp A→B at 2 h, 5 μM came to 5 ×10⁻⁶ cm/s.
Regarding `Cn1c(Nc2cc3n(n2)CCC32CCC2)nc2ncc(Oc3ccnc(NC(=O)C4CC4)c3)c(C#N)c21` [Example I-122, N-(4-((7-cyano-2-((5′,6′-dihydrospiro[cyclobutane-1,4′-pyrrolo[1,2-b]pyrazol]-2′-yl)amino)-1-methyl-1H-imidazo[4,5-b]pyridin-6-yl)oxy)pyridin-2-yl)cyclopropanecarboxamide], in data set [1], the IC50 is less than 125 nM. In the data set “Caco2 Permeability Assay”, the efflux ratio at 2 h, 5 μM was in the range of 2 to 5 and the Papp A→B at 2 h, 5 μM turned out to be 2 ×10⁻⁶ cm/s.
In the same order, the values of `CCN1CCN(Cc2ccc(Nc3nc4ccc(Oc5ccnc(NC(C)=O)c5)cc4n3C)cc2C(F)(F)F)CC1` [Example R-1, reference compound] are 200 to 1000 nM, 10 to 30 and 0.4 ×10⁻⁶ cm/s.
